How the values were obtained:
Assay type in all cases: cell-based
KMS-11 = assay: MTT antiproliferative assay, KMS-11; details: Homo sapiens, 72 hours
Description: (§1) Cell viability was monitored by the MTT (3-(4,5-dimethylthiazol-2-yl)-2,5-diphenyltetrazolium bromide) assay. For the MTT assay, cells were suspended at 5 × 10^5 cells/ml, and 100 μl aliquots were dispended into 96-well microtiter plates and exposed to drugs as described using DMSO control. At the end of incubations, 10 μl of a stock solution of 5 mg/ml MTT (3-(4,5-dimethylthiazol-2-yl)-2,5-diphenyltetrazolium bromide), was added into each well, and the plates were incubated 4 hours at 37 °C. Formazan crystals were dissolved with 100 μl of 10% SDS/10 mM HCl solution overnight at 37 °C. Since MTT assays are affected by mitochondrial activity, and since OXPHOS is affected by VLX1570 (unpublished observation), we used the acid phosphatase method[49] to determine cell viability in some experiments. After washing twice with PBS, cells were lysed in 100 μl of 0.1 M sodium acetate, 0,1% Triton X-100, p-nitrophenylphosphate (Pierce Biotechnology Inc, Rockford, IL) and incubated for 90 min at 37 °C. At the end of the incubation, 10 μl NaOH was added to each well and A405 was determined.

RPMI8226 = assay: MTT antiproliferative assay, RPMI8226; details: Homo sapiens, RPMI-8226, 72 hours
Description: as §1

OPM-2 = assay: MTT antiproliferative assay, OPM-2; details: Homo sapiens, 72 hours
Description: as §1

OPM-2-BZ^R = assay: MTT antiproliferative assay, OPM-2-BZR; details: Homo sapiens, OPM-2-BZ^R (bortezomib resistant), 72 hours
Description: as §1

USP14 = USP14 (Homo sapiens, UniProt P54578); assay: Cellular thermal shift assay (CETSA) in OPM-2 cells; set-up: endogenous in cells; host or cells: OPM-2 multiple myeloma cells; details: 1 hour
Description: For CETSA, the same amount of cells as one sample was treated with required condition and collected as described. Each sample was suspended in PBS supplemented with protease inhibitors after they were washed in PBS. And then these samples were heated at 51, 53, or 55 °C for 3 min. Immediately after heating, tubes were removed and incubated at room temperature for 3 min, and then snap-frozen in liquid nitrogen. Samples were freeze-thawed twice and centrifuged at 20,000 g for 20 min at +4 °C and supernatants were analysed by Western-blotting.

Sequence of USP14 (P54578 whole entry): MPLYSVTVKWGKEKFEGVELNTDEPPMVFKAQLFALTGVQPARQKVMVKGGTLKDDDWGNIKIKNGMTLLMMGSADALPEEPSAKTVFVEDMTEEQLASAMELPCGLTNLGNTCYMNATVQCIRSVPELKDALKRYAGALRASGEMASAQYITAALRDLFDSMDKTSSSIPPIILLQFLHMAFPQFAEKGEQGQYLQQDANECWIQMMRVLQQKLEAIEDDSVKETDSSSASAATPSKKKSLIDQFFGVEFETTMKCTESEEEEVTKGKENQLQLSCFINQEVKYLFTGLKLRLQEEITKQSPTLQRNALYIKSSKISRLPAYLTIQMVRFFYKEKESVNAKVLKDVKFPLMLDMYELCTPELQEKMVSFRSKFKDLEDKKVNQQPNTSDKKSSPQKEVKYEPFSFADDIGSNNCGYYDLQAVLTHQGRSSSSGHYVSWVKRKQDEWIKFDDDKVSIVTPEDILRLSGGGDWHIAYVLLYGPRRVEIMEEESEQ

Structure (SMILES)	IC50 (KMS-11) [nM]	IC50 (RPMI8226) [nM]	IC50 (OPM-2) [nM]	IC50 (OPM-2-BZ^R) [nM]	thermostabilization of USP14 (USP14; 5 μM)	thermostabilization of USP14 (USP14; 1 μM)
CC(C)C[C@H](NC(=O)[C@H](Cc1ccccc1)NC(=O)c1cnccn1)B(O)O [bortezomib]	67 ± 3	84 ± 5	32 ± 1	204 ± 10	–	–
CCC[C@H](NC(=O)/C(C#N)=C/c1cccc(Br)n1)c1ccccc1 [WP1130, reference compound]	–	–	–	–	induced thermostabilization	–
C=CC(=O)N1C/C(=C\c2ccc([N+](=O)[O-])cc2)C(=O)/C(=C/c2ccc([N+](=O)[O-])cc2)C1 [b-AP15]	83 ± 3	150 ± 14	160 ± 3	268 ± 12	–	induced thermostabilization
